Organism: Rattus norvegicus
Test: DrugMatrix - Regimen: Daily Repeat
Format: toxicity, organism-based, Sprague-Dawley
Design: regimen Daily Repeat, gender Male, age 6-8 weeks
Conditions: in vivo, po, route oral GAVAGE, […]; for ABSOLUTE BASOPHIL / ABSOLUTE EOSINOPHIL / ABSOLUTE LYMPHOCYTE / ABSOLUTE MONOCYTE / ABSOLUTE SEGMENTED NEUTROPHIL / BASOPHIL / EOSINOPHIL / ERYTHROCYTE COUNT / HEMATOCRIT / HEMOGLOBIN / LEUKOCYTE COUNT / LYMPHOCYTE / MEAN CORPUSCULAR HEMOGLOBIN / MEAN CORPUSCULAR HEMOGLOBIN CONCENTRATION / MEAN CORPUSCULAR VOLUME / MONOCYTE / NEUTROPHIL / NUCLEATED RED BLOOD CELLS / PLATELET COUNT: tissue Blood; for ALANINE AMINOTRANSFERASE / ALBUMIN / ALKALINE PHOSPHATASE / ASPARTATE AMINOTRANSFERASE / BLOOD UREA NITROGEN / CARBON DIOXIDE / CHLORIDE / CHOLESTEROL / CREATINE PHOSPHOKINASE / CREATININE / GLUCOSE / LACTATE DEHYDROGENASE / LIPASE / PHOSPHORUS / POTASSIUM / SODIUM / TOTAL BILIRUBIN / TOTAL PROTEIN: tissue Plasma
[1] = 20 mg/kg, 72 h, dose level Low, time 3 day
[2] = 20 mg/kg, 120 h, dose level Low, time 5 day
[3] = 210 mg/kg, 72 h, dose level High, time 3 day
[4] = 210 mg/kg, 120 h, dose level High, time 5 day

CN[C@H]1CC[C@@H](c2ccc(Cl)c(Cl)c2)c2ccccc21 [SERTRALINE]
ABSOLUTE BASOPHIL [1]: 0 CELLS/uL | ABSOLUTE EOSINOPHIL [1]: 28.33 CELLS/uL | ABSOLUTE LYMPHOCYTE [1]: 10624.33 CELLS/uL | ABSOLUTE MONOCYTE [1]: 86.67 CELLS/uL | ABSOLUTE SEGMENTED NEUTROPHIL [1]: 1294 CELLS/uL | BASOPHIL [1]: 0% | EOSINOPHIL [1]: 0.33% | ERYTHROCYTE COUNT [1]: 5.85 x10E6/uL | HEMATOCRIT [1]: 36.57% | HEMOGLOBIN [1]: 14.27 G/DL | LEUKOCYTE COUNT [1]: 12.03 x10E3/uL | LYMPHOCYTE [1]: 87.67% | MEAN CORPUSCULAR HEMOGLOBIN [1]: 24.37 pg | MEAN CORPUSCULAR HEMOGLOBIN CONCENTRATION [1]: 39.03 G/DL | MEAN CORPUSCULAR VOLUME [1]: 62.47 fL | MONOCYTE [1]: 0.67% | NEUTROPHIL [1]: 11.33% | NUCLEATED RED BLOOD CELLS [1]: 0 /100WBC | PLATELET COUNT [1]: 1161.67 x10E3/uL | ALANINE AMINOTRANSFERASE [1]: 70.33 u/L | ALBUMIN [1]: 4.23 G/DL | ALKALINE PHOSPHATASE [1]: 384.33 u/L | ASPARTATE AMINOTRANSFERASE [1]: 83.33 u/L | BLOOD UREA NITROGEN [1]: 14 mg/dL | CARBON DIOXIDE [1]: 29.67 mmol/L | CHLORIDE [1]: 103 MEQ/L | CHOLESTEROL [1]: 79 mg/dL | CREATINE PHOSPHOKINASE [1]: 163 u/L | CREATININE [1]: 0.23 mg/dL | GLUCOSE [1]: 158 mg/dL | LACTATE DEHYDROGENASE [1]: 155 u/L | LIPASE [1]: 11 u/L | PHOSPHORUS [1]: 12.33 mg/dL | POTASSIUM [1]: 6.97 MEQ/L | SODIUM [1]: 147.8 MEQ/L | TOTAL BILIRUBIN [1]: 0.17 mg/dL | TOTAL PROTEIN [1]: 5.57 G/DL | ABSOLUTE BASOPHIL [2]: 0 CELLS/uL | ABSOLUTE EOSINOPHIL [2]: 46.67 CELLS/uL | ABSOLUTE LYMPHOCYTE [2]: 12898.33 CELLS/uL | ABSOLUTE MONOCYTE [2]: 0 CELLS/uL | ABSOLUTE SEGMENTED NEUTROPHIL [2]: 955 CELLS/uL | BASOPHIL [2]: 0% | EOSINOPHIL [2]: 0.33% | ERYTHROCYTE COUNT [2]: 5.71 x10E6/uL | HEMATOCRIT [2]: 34.57% | HEMOGLOBIN [2]: 13.57 G/DL | LEUKOCYTE COUNT [2]: 13.9 x10E3/uL | LYMPHOCYTE [2]: 92.33% | MEAN CORPUSCULAR HEMOGLOBIN [2]: 23.83 pg | MEAN CORPUSCULAR HEMOGLOBIN CONCENTRATION [2]: 39.27 G/DL | MEAN CORPUSCULAR VOLUME [2]: 60.73 fL | MONOCYTE [2]: 0% | NEUTROPHIL [2]: 7.33% | NUCLEATED RED BLOOD CELLS [2]: 0 /100WBC | PLATELET COUNT [2]: 913 x10E3/uL | ALANINE AMINOTRANSFERASE [2]: 60.33 u/L | ALBUMIN [2]: 4.27 G/DL | ALKALINE PHOSPHATASE [2]: 427 u/L | ASPARTATE AMINOTRANSFERASE [2]: 85 u/L | BLOOD UREA NITROGEN [2]: 13.67 mg/dL | CARBON DIOXIDE [2]: 25.33 mmol/L | CHLORIDE [2]: 103.33 MEQ/L | CHOLESTEROL [2]: 77.67 mg/dL | CREATINE PHOSPHOKINASE [2]: 211 u/L | CREATININE [2]: 0.18 mg/dL | GLUCOSE [2]: 164.33 mg/dL | LACTATE DEHYDROGENASE [2]: 121.33 u/L | LIPASE [2]: 10.33 u/L | PHOSPHORUS [2]: 12.77 mg/dL | POTASSIUM [2]: 7.01 MEQ/L | SODIUM [2]: 147.5 MEQ/L | TOTAL BILIRUBIN [2]: 0.2 mg/dL | TOTAL PROTEIN [2]: 5.9 G/DL | ABSOLUTE BASOPHIL [3]: 0 CELLS/uL | ABSOLUTE EOSINOPHIL [3]: 0 CELLS/uL | ABSOLUTE LYMPHOCYTE [3]: 11258 CELLS/uL | ABSOLUTE MONOCYTE [3]: 82.33 CELLS/uL | ABSOLUTE SEGMENTED NEUTROPHIL [3]: 1226.33 CELLS/uL | BASOPHIL [3]: 0% | EOSINOPHIL [3]: 0% | ERYTHROCYTE COUNT [3]: 6.22 x10E6/uL | HEMATOCRIT [3]: 39.43% | HEMOGLOBIN [3]: 15.5 G/DL | LEUKOCYTE COUNT [3]: 12.57 x10E3/uL | LYMPHOCYTE [3]: 89.67% | MEAN CORPUSCULAR HEMOGLOBIN [3]: 24.93 pg | MEAN CORPUSCULAR HEMOGLOBIN CONCENTRATION [3]: 39.33 G/DL | MEAN CORPUSCULAR VOLUME [3]: 63.33 fL | MONOCYTE [3]: 0.67% | NEUTROPHIL [3]: 9.67% | NUCLEATED RED BLOOD CELLS [3]: 0 /100WBC | PLATELET COUNT [3]: 1225 x10E3/uL | ALANINE AMINOTRANSFERASE [3]: 53.67 u/L | ALBUMIN [3]: 4.33 G/DL | ALKALINE PHOSPHATASE [3]: 460.67 u/L | ASPARTATE AMINOTRANSFERASE [3]: 112 u/L | BLOOD UREA NITROGEN [3]: 16 mg/dL | CARBON DIOXIDE [3]: 28.33 mmol/L | CHLORIDE [3]: 101.33 MEQ/L | CHOLESTEROL [3]: 55.33 mg/dL | CREATINE PHOSPHOKINASE [3]: 286.67 u/L | CREATININE [3]: 0.22 mg/dL | GLUCOSE [3]: 117.33 mg/dL | LACTATE DEHYDROGENASE [3]: 163.33 u/L | LIPASE [3]: 10.33 u/L | PHOSPHORUS [3]: 11.53 mg/dL | POTASSIUM [3]: 6.21 MEQ/L | SODIUM [3]: 146.43 MEQ/L | TOTAL BILIRUBIN [3]: 0.1 mg/dL | TOTAL PROTEIN [3]: 5.97 G/DL | ABSOLUTE BASOPHIL [4]: 0 CELLS/uL | ABSOLUTE EOSINOPHIL [4]: 207 CELLS/uL | ABSOLUTE LYMPHOCYTE [4]: 18574.33 CELLS/uL | ABSOLUTE MONOCYTE [4]: 70.33 CELLS/uL | ABSOLUTE SEGMENTED NEUTROPHIL [4]: 1848.33 CELLS/uL | BASOPHIL [4]: 0% | EOSINOPHIL [4]: 1% | ERYTHROCYTE COUNT [4]: 6.11 x10E6/uL | HEMATOCRIT [4]: 37.3% | HEMOGLOBIN [4]: 14.97 G/DL | LEUKOCYTE COUNT [4]: 20.7 x10E3/uL | LYMPHOCYTE [4]: 89.67% | MEAN CORPUSCULAR HEMOGLOBIN [4]: 24.53 pg | MEAN CORPUSCULAR HEMOGLOBIN CONCENTRATION [4]: 40.13 G/DL | MEAN CORPUSCULAR VOLUME [4]: 61.1 fL | MONOCYTE [4]: 0.33% | NEUTROPHIL [4]: 9% | NUCLEATED RED BLOOD CELLS [4]: 0 /100WBC | PLATELET COUNT [4]: 1278.33 x10E3/uL | ALANINE AMINOTRANSFERASE [4]: 67 u/L | ALBUMIN [4]: 4.07 G/DL | ALKALINE PHOSPHATASE [4]: 368.33 u/L | ASPARTATE AMINOTRANSFERASE [4]: 101.67 u/L | BLOOD UREA NITROGEN [4]: 18 mg/dL | CARBON DIOXIDE [4]: 26 mmol/L | CHLORIDE [4]: 102.67 MEQ/L | CHOLESTEROL [4]: 74 mg/dL | CREATINE PHOSPHOKINASE [4]: 255.33 u/L | CREATININE [4]: 0.23 mg/dL | GLUCOSE [4]: 153 mg/dL | LACTATE DEHYDROGENASE [4]: 287.33 u/L | LIPASE [4]: 10 u/L | PHOSPHORUS [4]: 12.3 mg/dL | POTASSIUM [4]: 6.87 MEQ/L | SODIUM [4]: 146.47 MEQ/L | TOTAL BILIRUBIN [4]: 0.13 mg/dL | TOTAL PROTEIN [4]: 5.9 G/DL

Reference: ChEMBL document CHEMBL3885881, “DrugMatrix”
